Laboratory results as given in patent US12161637B2, “Anti-cancer gold complex, process of synthesis and method of treatment thereof” (King Saud University, priority 2022, dated 2024).
Where two headings read alike, the source gives them in different places.

Key:
Type in all cases: cell-based
MCF-7 cells [1] = assay: Mitochondrial membrane potential analysis, Muse MitoPotential Kit, flow cytometry; conditions: for percentage of depolarized cancer cells (mitochondrial membrane potential): 24 h
Protocol: Mitochondrial membrane potential is an important parameter to assess the integrity of mitochondria, which is a potential target in cancer therapeutics. The loss of mitochondrial membrane potential has been known to be associated with early stages of apoptosis and reactive oxygen species (ROS) induction. To assess the mitochondrial membrane potential, Muse® MitoPotential Kit (Luminex, IL, USA) was used. MCF-7 cells were seeded in a 6 well plate at 1.5×10^4 cells/well. […] DMSO was used as a negative control. The final DMSO concentration in each well was less than 0.1%. Then, cells were stained with MitoPotential reagents following the manufacture's protocol. The percentage of depolarized/live cells was estimated by flow cytometry.

[2] = tested on: MCF-7 breast cancer cell line; assay: Apoptosis analysis, Muse Annexin V Live & Dead Cell Kit, flow cytometry; conditions: 24 h, versus control
Protocol: MCF-7 cells were seeded in 6 well plates at 1.5×10^4 cells per well. […] DMSO was used as a negative control. The final DMSO concentration in each well was less than 0.1%. The harvested cells were stained with Annexin V-FITC and Dead Cell reagent following the manufacture's protocol. Then, the percentage of apoptotic cells was estimated by flow cytometry.

MCF-7 cells [3] = assay: Oxidative stress analysis (ROS generation), Muse Oxidative Stress Kit, flow cytometry; conditions: 24 h
Protocol: The induction of oxidative stress via ROS generation endogenously in cancer cells is a potential target of anticancer agents. Oxidative stress causes irreversible cellular damage which induces apoptosis in concentration-dependent manner. MCF-7 cells were plated at 1.5×10^4 cells/well using a 6 well plate to estimate the generation of reactive oxygen species (ROS). […] DMSO was used as a negative control. The final DMSO concentration in each well was less than 0.1%. Then, the cells were harvested and stained with Muse® Oxidative Stress Kit (Luminex, IL, USA) following the manufacture's protocol. The percentage of cells that were undergoing oxidative stress was measured by flow cytometry.

[4] = tested on: MCF-7 breast cancer cells; assay: Cell viability by MTT assay; conditions: read-out: IC50, cell viability (cytotoxicity)
From the text: Materials and methods: All organic ligands were purchased from Sigma-Aldrich and gold salts from Strom Chemicals USA. Breast cancer cell lines MCF-7 were obtained from American Type Culture Collection, ATCC (Virginia, USA). Dulbecco's Modified Eagle's Medium (DMEM), Fetal Bovine Serum (FBS), and 0.25% Trypsin 0.1% EDTA were obtained from Gibco (Grand Island, NY). The 3-(4,5-dimethylthiazol-2-yl)-2,5-diphenyltetrazolium bromide (MTT) and DMSO were purchased from Sigma-Aldrich (St. Louis, MO).
Cell viability was determined by 3-(4,5-dimethylthiazol-2-yl)-2,5-diphenyltetrazolium bromide (MTT) assay. Breast cancer cells, MCF-7, were seeded in a 96-well tissue culture plate at 10,000 cells/well in 200 μl of DMEM. […] Then, 20 μl of MTT (5 mg/mL) was added to the each well and incubated in a CO2 incubator at 37° C. in the dark for 3 h. After incubation, a purple-colored formazan dye is produced and appeared as dark crystals in the bottom of the wells. To dissolve the formazan crystals, the culture medium was discarded and 100 μL of isopropanol were added to each well. The absorbance was recorded at 570 nm against reagent blank. The cell viability was calculated by the formula below: Cell viability (%)=[Absorbance Compound/Absorbance DMSO]*100

[5] = MCF-7, higher concentration (5 μM)
[6] = MCF-7, lower concentration (1 μM)

Compound | mitochondrial membrane potential depolarization compared to positive control Sorafenib (MCF-7 cells [1]; MCF-7, 24 h) | percentage of depolarized cancer cells (mitochondrial membrane potential) (MCF-7 cells [1]; [5]) [%] | percentage of depolarized cancer cells (mitochondrial membrane potential) (MCF-7 cells [1]; [6]) [%] | induction of apoptosis (early and late combined) ([2]; MCF-7, 1 μM) [folds] | induction of apoptosis (early and late combined) ([2]; MCF-7, 3 μM) [folds] | induction of apoptosis (early and late combined) ([2]; MCF-7, 10 μM) [folds] | ROS generation (MCF-7 cells [3]; MCF-7, 1 μM) [%] | ROS generation (MCF-7 cells [3]; MCF-7, 5 μM) [%] | IC50 ([4]; MCF-7, 24 h treatment) [nM] | IC50 ([4]; Homo sapiens, MCF7, MCF-7, 24 h treatment) [nM]
O=Cc1ccnc(-c2cc(C=O)ccn2)c1.S=C([S][Au+2])N(Cc1ccccc1)Cc1ccccc1 [DDBDG, dibenzyldithiocarbamato-2,2′-bipyridine-4,4′-dicarboxaldehyde gold (III)] | roughly three-folds higher | 27.8 | 27.0 | 2.2 | 4.4 | 5.5 | 125.53 | 103.47 | 875 | 
CNC(=O)c1cc(Oc2ccc(NC(=O)Nc3ccc(Cl)c(C(F)(F)F)c3)cc2)ccn1 [Sorafenib, reference compound] |  | 12.0 | 2.7 |  |  |  | 73.76 | 122.11 |  | 4440
